Measured values from ChEMBL document CHEMBL1201862, “PubChem BioAssay data set” (2004).
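Assay format: 96-well plates, 48-hour exposure. GI50: concentration for 50% inhibition of growth.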 Calls of active or inactive are those of the source. Cut-off read from the data, not from the text of the source: active = GI50 up to about 1.1 µM and inactive = higher.

Assays:
Assay in all cases: inhibition of tumour cell growth, NCI panel, 48 h
OVCAR-8 = tested on: OVCAR-8
HOP-92 = tested on: HOP-92
SNB-19 = tested on: SNB-19
NCI/ADR-RES = tested on: NCI/ADR-RES
NCI-H23 = tested on: NCI-H23
786-0 = tested on: 786-0
SK-MEL-2 = tested on: SK-MEL-2
OVCAR-4 = tested on: OVCAR-4
RPMI-8226 = tested on: RPMI-8226
UACC-257 = tested on: UACC-257
MDA-N = tested on: MDA-N
SNB-75 = tested on: SNB-75
SW-620 = tested on: SW-620
A549 = tested on: A549
HT-29 = tested on: HT-29
BT-549 = tested on: BT-549
OVCAR-3 = tested on: OVCAR-3
TK-10 = tested on: TK-10
EKVX = tested on: EKVX
MOLT-4 = tested on: MOLT-4

Measured: GI50

c1ccc2sc(SCCSc3nc4ccccc4s3)nc2c1
inactive: OVCAR-8 > 100 µM | HOP-92 > 100 µM | SNB-19 > 100 µM | NCI/ADR-RES > 100 µM | NCI-H23 > 100 µM | 786-0 > 100 µM | SK-MEL-2 > 100 µM | OVCAR-4 52.1 µM | RPMI-8226 > 100 µM | UACC-257 > 100 µM | MDA-N > 100 µM | SNB-75 74.3 µM | SW-620 > 100 µM | A549 > 100 µM | HT-29 > 100 µM | BT-549 > 100 µM | OVCAR-3 > 100 µM | TK-10 > 100 µM | EKVX > 100 µM

OC(CCN1CCN(CCOC(c2ccc(F)cc2)c2ccc(F)cc2)CC1)c1ccc(Br)cc1 (configuration not stated)
inactive: OVCAR-8 2.02 µM | HOP-92 4.37 µM | SNB-19 7.6 µM | NCI/ADR-RES 2.21 µM | NCI-H23 6.75 µM | 786-0 2.68 µM | SK-MEL-2 5.36 µM | OVCAR-4 4.01 µM | RPMI-8226 2.67 µM | UACC-257 1.96 µM | MDA-N 2.61 µM | SNB-75 9.77 µM | SW-620 4.67 µM | A549 9.44 µM | HT-29 3.32 µM | BT-549 5.83 µM | MOLT-4 2.4 µM | OVCAR-3 3.34 µM | TK-10 6.76 µM | EKVX 5.15 µM

C#C[C@]1(O)CC[C@H]2[C@@H]3CCC4=C/C(=N/OC(=O)c5cccc6cc7ccccc7nc56)CC[C@@H]4[C@H]3CC[C@@]21CC
inactive: OVCAR-8 > 100 µM | HOP-92 > 100 µM | SNB-19 > 100 µM | NCI/ADR-RES > 100 µM | NCI-H23 > 100 µM | 786-0 > 100 µM | SK-MEL-2 > 100 µM | OVCAR-4 > 100 µM | RPMI-8226 > 100 µM | UACC-257 > 100 µM | MDA-N > 100 µM | SNB-75 > 100 µM | SW-620 > 100 µM | A549 > 100 µM | HT-29 > 100 µM | BT-549 > 100 µM | MOLT-4 > 100 µM | OVCAR-3 > 100 µM

CCCCc1c(C(=O)OC(C)(C)C)cc(C#Cc2cc(C(=O)OC(C)(C)C)c(CCCC)c(C(=O)OC(C)(C)C)c2)cc1C(=O)OC(C)(C)C
inactive: HOP-92 > 100 µM | SNB-19 > 100 µM | NCI/ADR-RES > 100 µM | NCI-H23 > 100 µM | 786-0 > 100 µM | SK-MEL-2 > 100 µM | OVCAR-4 > 100 µM | RPMI-8226 > 100 µM | UACC-257 > 100 µM | MDA-N > 100 µM | SNB-75 > 100 µM | A549 > 100 µM | BT-549 > 100 µM | OVCAR-3 > 100 µM | TK-10 > 100 µM | EKVX > 100 µM

COC(=N)C12C(N)=NC(OC)(OC)C1(C#N)C21C(=O)N(c2ccccc2)N=C1C (configuration not stated)
inactive: OVCAR-8 > 100 µM | HOP-92 > 100 µM | SNB-19 > 100 µM | NCI/ADR-RES > 100 µM | NCI-H23 > 100 µM | 786-0 > 100 µM | SK-MEL-2 > 100 µM | OVCAR-4 > 100 µM | RPMI-8226 > 100 µM | UACC-257 > 100 µM | MDA-N > 100 µM | SNB-75 > 100 µM | SW-620 > 100 µM | A549 > 100 µM | HT-29 > 100 µM | BT-549 > 100 µM | MOLT-4 > 100 µM | OVCAR-3 > 100 µM | EKVX > 100 µM

Cc1cc2c(O)c(c1)COCc1cc(C)cc(c1O)COCc1cc(C)cc(c1O)COC2
inactive: OVCAR-8 50.1 µM | HOP-92 > 100 µM | SNB-19 > 100 µM | NCI/ADR-RES > 100 µM | NCI-H23 > 100 µM | 786-0 47.1 µM | SK-MEL-2 > 100 µM | OVCAR-4 > 100 µM | RPMI-8226 > 100 µM | UACC-257 > 100 µM | MDA-N > 100 µM | SNB-75 80.5 µM | SW-620 > 100 µM | A549 > 100 µM | HT-29 95.3 µM | BT-549 > 100 µM | MOLT-4 > 100 µM | OVCAR-3 > 100 µM | EKVX > 100 µM

O=C(O)/C=C\C(=O)Nc1ccccn1
inactive: OVCAR-8 > 100 µM | HOP-92 > 100 µM | SNB-19 > 100 µM | NCI/ADR-RES > 100 µM | NCI-H23 > 100 µM | 786-0 > 100 µM | SK-MEL-2 > 100 µM | OVCAR-4 > 100 µM | RPMI-8226 > 100 µM | UACC-257 > 100 µM | MDA-N > 100 µM | SNB-75 > 100 µM | SW-620 > 100 µM | A549 > 100 µM | HT-29 > 100 µM | BT-549 > 100 µM | MOLT-4 > 100 µM | OVCAR-3 > 100 µM | EKVX > 100 µM

CCOP(=O)(OCC)C(Nc1cccc([N+](=O)[O-])c1)c1ccccc1 (configuration not stated)
inactive: OVCAR-8 > 10 µM | HOP-92 62.4 µM | SNB-19 > 100 µM | NCI/ADR-RES 97.1 µM | NCI-H23 > 100 µM | 786-0 > 100 µM | SK-MEL-2 82.4 µM | OVCAR-4 > 100 µM | RPMI-8226 76.7 µM | UACC-257 72.1 µM | MDA-N > 100 µM | SNB-75 71.9 µM | A549 57.1 µM | HT-29 75 µM | BT-549 > 100 µM | MOLT-4 39.4 µM | OVCAR-3 > 100 µM | TK-10 > 100 µM | EKVX 62.2 µM

N#C/C(=C/N1C(=O)/C(=C/c2ccc([N+](=O)[O-])cc2)SC1=S)c1nc2ccccc2s1
inactive: OVCAR-8 37.9 µM | HOP-92 17.5 µM | SNB-19 29.6 µM | NCI/ADR-RES 32.7 µM | NCI-H23 20.7 µM | 786-0 25.4 µM | SK-MEL-2 16.7 µM | OVCAR-4 29.7 µM | RPMI-8226 11.1 µM | UACC-257 14.2 µM | MDA-N 24.4 µM | SNB-75 25.1 µM | SW-620 34.8 µM | A549 25.6 µM | HT-29 31.2 µM | BT-549 19.4 µM | OVCAR-3 3.48 µM | TK-10 26.9 µM | EKVX 18.4 µM

C/C(=N\NC(=S)NC(C)C)c1nc2cccnc2[nH]1
inactive: OVCAR-8 7.98 µM | HOP-92 39.9 µM | SNB-19 30.9 µM | NCI/ADR-RES 40.5 µM | 786-0 20.3 µM | SK-MEL-2 18.7 µM | OVCAR-4 6.15 µM | RPMI-8226 > 100 µM | UACC-257 34.6 µM | MDA-N > 100 µM | SNB-75 28.1 µM | SW-620 12.1 µM | A549 31.5 µM | HT-29 12.8 µM | BT-549 15.5 µM | MOLT-4 9.95 µM | OVCAR-3 6.62 µM | TK-10 21.3 µM | EKVX 13.5 µM
